In the NIST ThermoML archive (doi:10.1016/j.jct.2013.06.020):

Assay: mn = molality of the nth substance listed, in mol/kg
Details: 298.15 K, 101 kPa, Liquid; for speed of sound: Sing-around technique in a fixed-path interferometer; for mass density: Vibrating tube method

OCc1ccco1 [2-hydroxymethylfuran] + O
Details	mass density [kg/m3]	speed of sound [m/s]
m1 = 0.0475	997.854	1498.9
m1 = 0.0537	997.937	1499.3
m1 = 0.0559	997.967	1499.4
m1 = 0.0625	998.054	1499.7
m1 = 0.0688	998.143	1500
m1 = 0.0781	998.269	1500.3
m1 = 0.0999	998.571	1501.3
m1 = 0.1027	998.607	1501.5
m1 = 0.12	998.847	1502.2
m1 = 0.1433	999.158	1503.3
m1 = 0.1651	999.552	1504.3
m1 = 0.2327	1000.39	1507.1
m1 = 0.2468	1000.58	1507.8
m1 = 0.4458	1003.25	1515.9
m1 = 0.618	1005.5	1522.3
m1 = 0.8613	1008.56	1530.4
m1 = 1.054	1010.95	1535.9
m1 = 1.236	1012.93	1540.5
m1 = 1.441	1015.25	1545.5
m1 = 1.656	1017.56	1550
m1 = 1.835	1019.32	1554
m1 = 2.062	1021.73	1559.4
m1 = 2.545	1026.13	1569.5
m1 = 2.874	1028.8	1577.2

CCCCOC(=O)C(C)O (centres undefined) [butyl 2-hydroxypropanoate] + O
Details	mass density [kg/m3]	speed of sound [m/s]
m1 = 0.0219	997.335	1498.8
m1 = 0.0262	997.377	1499.4
m1 = 0.0328	997.422	1499.9
m1 = 0.0399	997.472	1500.3
m1 = 0.0413	997.482	1500.5
m1 = 0.0444	997.503	1500.8
m1 = 0.0632	997.633	1502.3
m1 = 0.0659	997.652	1502.6
m1 = 0.0775	997.733	1503.7
m1 = 0.0915	997.826	1504.9
m1 = 0.1058	997.928	1506.1
m1 = 0.1167	998.001	1507
m1 = 0.1331	998.116	1508.4
m1 = 0.1551	998.265	1510.2
m1 = 0.1798	998.437	1512.2
m1 = 0.1979	998.576	1514
m1 = 0.2171	998.689	1515.5
m1 = 0.235	998.813	1516.7
m1 = 0.2647	999.004	1518.4
m1 = 0.2785	999.098	1519.4

O=Cc1ccco1 [2-furaldehyde] + O
Details	mass density [kg/m3]	speed of sound [m/s]
m1 = 0.0542	998.113	1499.1
m1 = 0.0556	998.137	1499.2
m1 = 0.0607	998.217	1499.4
m1 = 0.0653	998.295	1499.6
m1 = 0.0686	998.351	1499.7
m1 = 0.075	998.453	1500
m1 = 0.0801	998.537	1500.2
m1 = 0.089	998.69	1500.6
m1 = 0.1095	999.037	1501.4
m1 = 0.1179	999.174	1501.8
m1 = 0.1332	999.425	1502.3
m1 = 0.1717	1000.07	1504
m1 = 0.2053	1000.62	1505.3
m1 = 0.2309	1001.03	1506.1
m1 = 0.3092	1002.32	1508.9
m1 = 0.3436	1002.87	1510
m1 = 0.4132	1003.97	1512.3
m1 = 0.5112	1005.51	1515.2
m1 = 0.5559	1006.19	1516.5
m1 = 0.6557	1007.7	1518.7
m1 = 0.8368	1010.35	1522
m1 = 0.9225	1011.55	1523.5

Cc1ccc(C=O)o1 [5-methylfurfural] + O
Details	mass density [kg/m3]	speed of sound [m/s]
m1 = 0.0067	997.297	1497
m1 = 0.0069	997.3	1497
m1 = 0.0081	997.319	1497.1
m1 = 0.0083	997.323	1497.2
m1 = 0.0084	997.325	1497.2
m1 = 0.0098	997.344	1497.2
m1 = 0.0103	997.35	1497.2
m1 = 0.0109	997.355	1497.3
m1 = 0.0122	997.373	1497.3
m1 = 0.0137	997.397	1497.4
m1 = 0.016	997.425	1497.6
m1 = 0.0179	997.454	1497.7
m1 = 0.0223	997.516	1497.9
m1 = 0.0257	997.563	1498.1
m1 = 0.0292	997.613	1498.3
m1 = 0.0462	997.848	1499.2
m1 = 0.0557	997.966	1499.6
m1 = 0.0608	998.055	1500
m1 = 0.0825	998.35	1501.1
m1 = 0.1136	998.767	1503
m1 = 0.1363	998.986	1503.8
m1 = 0.1454	999.221	1504.2
m1 = 0.1666	999.516	1505.2
m1 = 0.204	1000.01	1506.9
m1 = 0.2877	1001.14	1511

CCCCOC(=O)CCC(C)=O [butyl levulinate] + O
Details	mass density [kg/m3]	speed of sound [m/s]
m1 = 0.0029	997.066	1497.3
m1 = 0.0037	997.071	1497.5
m1 = 0.005	997.078	1497.6
m1 = 0.0055	997.08	1497.6
m1 = 0.0059	997.081	1497.7
m1 = 0.0074	997.088	1497.9
m1 = 0.0083	997.093	1497.9
m1 = 0.0088	997.096	1497.9
m1 = 0.011	997.107	1498.2
m1 = 0.0128	997.114	1498.4
m1 = 0.0135	997.123	1498.5
m1 = 0.0142	997.124	1498.5
m1 = 0.0208	997.158	1499.1
m1 = 0.0219	997.163	1499.4
m1 = 0.0257	997.183	1499.7
m1 = 0.0303	997.197	1500
m1 = 0.0312	997.209	1500.1
m1 = 0.0357	997.23	1500.6
m1 = 0.0466	997.273	1501.4
m1 = 0.0522	997.303	1501.8
m1 = 0.0625	997.333	1502.5
